# Key:
# [1] = Solubility of dinitrile in the aqueous cell suspension; format: physicochemical; settings: aqueous cell suspension of Acidovorax facilis 72W, two-phase above this concentration; read-out: concentration above which the solubility of the dinitrile was exceeded
# Protocol: Into a 500 mL erlenmeyer flask equipped with magnetic stir bar was placed 50.0 g of frozen Acidovorax facilis 72W (ATCC 55746) cells (previously heat-treated at 50° C. for 1 h before freezing) and 450 mL of potassium phosphate buffer (20 mM, pH 7.0) at 27° C. With stirring, the cells were thawed and suspended, then centrifuged and the supernatant discarded. The cell pellet was resuspended in a total volume of 863 mL of potassium phosphate buffer (20 mM, pH 7.0) in a 1.0 L flask, then 133 g (137.0 mL, 1.25 mole) of 2-methyleneglutaronitrile was added with stirring at 27° C. […] Samples (0.100 mL) were withdrawn, diluted 1:10 with water and centrifuged, then 0.150 mL of the supernatant was placed in a Millipore Ultrafree-MC filter unit (0.22 micron) and mixed with 0.150 mL of an aqueous solution of 0.150M N-methylpropionamide (HPLC external standard solution). The resulting solution was filtered and analyzed by HPLC.
# [2] = pKa of acid and protonated amine groups / ionization at reaction pH; format: physicochemical; settings: calculated, reaction mixture pH of between 9 and 10
# [3] = cited from earlier work
# [4] = physchem; settings: 20 mm phosphate buffer, pH 7, aqueous buffer
# [5] = Lange's Handbook of Chemistry, 14th edn.
smiles,measurement,setting,value
C=C(C#N)CCC#N [2-methyleneglutaronitrile],solubility,[1],≤ 400 mM
N.NCCCCCC(=O)O [6-aminocaproic acid ammonium salt],fraction of amine groups protonated,[2],approximately half
NCCCCCC(=O)O [6-aminocaproic acid],fraction existing in solution as the ammonium salt of the carboxylic acid,[2],at least 99.997%
same,pKa of the carboxylic acid group,[3]; [5],4.373
same,pKa of the protonated amine group,[3]; [5],10.804
N#CCCCCC#N [adiponitrile],solubility,[4],~600 mM
CN [methylamine],pKa for the protonated amine (methylamine),[3]; in water,10.62

# Source: patent US5858736A, “Preparation of lactams from aliphatic α,ω-dinitriles” (priority 1996, dated 1999)
